The source of these data is ChEMBL document CHEMBL1201862, “PubChem BioAssay data set” (2004).

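Briefly, cells in 96-well plates were exposed to five compound concentrations for 48 h, and endpoints were estimated by linear interpolation. The concentration for 50% growth inhibition is given as GI50.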 Active and inactive are the calls of the source. Rule as the data show it: active = GI50 up to about 1.1 µM and inactive = higher. Some results are limits rather than exact numbers.

Experiment in all cases: inhibition of tumour cell growth, NCI panel, 48 h
For experiment [1], the system named is HOP-18.
For experiment [2], the system named is LXFL 529.
Experiment [3] has as its system DMS-273.
Experiment [4] relates to DLD-1.
Experiment [5] relates to KM-20L2.
Experiment [6] concerns DMS-114.
The test system of experiment [7] is XF498.
Experiment [8] relates to RXF 631.
Experiment [9] deals with SNB-78.

Take `Oc1ccc(Br)cc1/C=N/c1ccc(Oc2ccc(/N=C/c3cc(Br)ccc3O)cc2)cc1`: the GI50 in experiment [1], in [2], in [3], in experiment [4], in [5] and in experiment [6] was > 19.6 µM (inactive) throughout.
Turning to `CCCCCCCCCC(=O)OCC1OC(n2cc(F)c(=O)[nH]c2=O)C(NC(=O)OCc2ccccc2)C(OC(=O)CCCCCCCCC)C1O` (stereo not drawn), the GI50 in experiment [2] was 24.7 µM (inactive); in experiment [3] it was 36.8 µM (inactive); in experiment [5], > 10 µM (inactive); in [6], 18.8 µM (inactive).
As to `CCCCc1c2c([n+]([O-])c3c1CCCC3)CCCC2`, the GI50 is > 100 µM (inactive) in [2]; 96.6 µM (inactive) in experiment [3]; > 100 µM (inactive) in experiment [5]; > 100 µM (inactive) in [6]; > 100 µM (inactive) in experiment [7].
With `CC(=O)OC1OC2C(NC(=O)OC(C)(C)C)C1CC2(OCc1ccccc1)OCc1ccccc1` (stereo not drawn), the GI50 in experiment [1] was 19.5 µM (inactive); in experiment [8], 33.4 µM (inactive); in experiment [2], 20 µM (inactive); in experiment [3], 18.6 µM (inactive); in [9] it was 37.6 µM (inactive); in experiment [5], 19.9 µM (inactive). Also, the results for the GI50 in experiment [6] and in [7] were 18.7 µM (inactive) and 18.9 µM (inactive), respectively.
For `Cc1cc2nc3c(C(OC4OC(CO)C(O)C(O)C4O)C(O)CO)nn(-c4ccc(F)cc4)c3nc2cc1C` (stereo not drawn), the GI50 in experiment [8], in experiment [2], in experiment [4], in [9], in experiment [5] and in [6] was > 100 µM (inactive) each time. Besides, in experiment [7], the GI50 is > 100 µM (inactive).
For `CCOC(=O)C(=O)Nc1c(C)cccc1C`, the GI50 in experiment [1], in experiment [2], in [3], in experiment [4], in experiment [9] and in experiment [5] was > 100 µM (inactive) each time. In addition, the GI50 in experiment [6] and in [7] was > 100 µM (inactive) throughout.
`Cc1n[nH]c(=S)n(C)c1=S`: the GI50 in experiment [1] was 27.2 µM (inactive); in experiment [8] it was > 100 µM (inactive); in [2], > 100 µM (inactive); in [3], > 100 µM (inactive); in experiment [4] it was > 100 µM (inactive); in [9] it was > 100 µM (inactive). In addition, the GI50 in [5], in experiment [6] and in experiment [7] was > 100 µM (inactive) in each case.
Consider `COc1ccccc1C12OC(=O)C1(C)Oc1ccccc1C2=O` (stereo not drawn), for which the GI50 in experiment [8] was 30.8 µM (inactive); in experiment [2] it was > 100 µM (inactive); in [3], 22.5 µM (inactive); in experiment [4], > 100 µM (inactive); in [9], > 100 µM (inactive); in [5], > 100 µM (inactive). In addition, the GI50 in [6] and in experiment [7] was > 100 µM (inactive) throughout.
As for `Cc1cc([N+](=O)[O-])ccc1Sc1c2ccccc2nc2cc(Cl)ccc12`, the GI50 in experiment [1] is 34.8 µM (inactive); in [8] it was 49.1 µM (inactive); in experiment [2], 31 µM (inactive); in experiment [3], 26.9 µM (inactive); in experiment [4], 36.3 µM (inactive); in experiment [9] it was 41.3 µM (inactive). In addition, the GI50 in experiment [5] is 20.4 µM (inactive); in [6], 25.4 µM (inactive); in experiment [7] it was 23 µM (inactive).
Regarding `Nc1ccc(C(=O)N/C(=C\c2ccc3c(c2)OCO3)c2nc3ccccc3s2)cc1`, the GI50 in experiment [8] is 5.79 µM (inactive); in [2], 10.6 µM (inactive); in [3] it was 16.8 µM (inactive); in experiment [4], 13 µM (inactive); in experiment [9], 16.7 µM (inactive); in experiment [5], 14.8 µM (inactive). The GI50 in [7] is 12.9 µM (inactive).
Take `N#Cc1c(C[n+]2ccccc2)c2ccccc2oc1=O`: the GI50 in experiment [2], in experiment [3], in experiment [4], in experiment [9], in experiment [5] and in [6] was > 100 µM (inactive) in each case. For the same compound, the GI50 in [7] is > 100 µM (inactive).
Regarding `CC1=C(C(=O)CC(=O)C(=O)Nc2ccccc2C)Sc2ccccc2N1`, the GI50 was > 100 µM (inactive) in [1]; > 100 µM (inactive) in experiment [3]; > 45.8 µM (inactive) in experiment [4]; > 100 µM (inactive) in experiment [9]; > 81.3 µM (inactive) in experiment [5].
Consider `FC(F)(F)c1ccc(C2SCc3nc4ccccc4n32)cc1` (stereo not drawn), for which the GI50 in experiment [1] is > 100 µM (inactive); in experiment [8] it was 2.96 µM (inactive); in experiment [2], 23.4 µM (inactive); in experiment [3], 33.8 µM (inactive); in experiment [4], 7.24 µM (inactive); in [9], > 100 µM (inactive). Moreover, in experiment [6], the GI50 was 7.21 µM (inactive).
Consider `CN(C)C(=S)/N=c1\ssc(=S)n1Cc1ccncc1`, for which the GI50 in [1] is 17.7 µM (inactive); in [8], 3.8 µM (inactive); in experiment [2], 16.3 µM (inactive); in experiment [3], 16.4 µM (inactive); in experiment [4] it was 16 µM (inactive); in [9], > 100 µM (inactive). The GI50 in experiment [5] was 32.9 µM (inactive); in [6] it was 2.39 µM (inactive); in [7], 5.66 µM (inactive).
Consider `O=C[C@]12CC=C3OC4OC5(CCCCC5)OC4[C@H]3[C@H]1C(=O)C=CC2=O` (stereo partly drawn), for which the GI50 in experiment [8] is 35.6 µM (inactive); in [2], 19 µM (inactive); in experiment [3] it was 39.2 µM (inactive); in experiment [4] it was 17.3 µM (inactive); in [9], 14.2 µM (inactive); in [6], 19.1 µM (inactive). For the same compound, the GI50 in experiment [7] was 14.6 µM (inactive).
As for `CC1=C(c2nc3ccccc3s2)C(=O)OC1(C)C`, the GI50 in experiment [8], in [2], in [3], in experiment [4], in experiment [9] and in experiment [5] was > 100 µM (inactive) each time. In addition, the GI50 in [6] and in experiment [7] was > 100 µM (inactive) throughout.
Consider `O=[N+]([O-])c1ccc2nc(/C(=N/Nc3ccccc3)C(O)c3ccc(C(O)/C(=N\Nc4ccccc4)c4nc5ccc([N+](=O)[O-])cc5nc4O)cc3)cnc2c1` (stereo not drawn), for which the GI50 in experiment [5] was 11.5 µM (inactive); in experiment [6], 11.2 µM (inactive).
Turning to `CC1(C)C(=O)C(=Cc2ccco2)C1=O`, the GI50 in [1], in [8], in [2], in [4], in [9] and in [6] was > 100 µM (inactive) in each case. Also, the GI50 in experiment [7] is > 100 µM (inactive).
Consider `CC(C)(CN1CCCCC1)C(=O)/C=C/c1ccc(/C=C/C(=O)C(C)(C)CN2CCCCC2)cc1`, for which the GI50 in experiment [1] was 1.28 µM (inactive); in [2], 0.262 µM (active); in [3] it was 0.361 µM (active); in experiment [4], 0.142 µM (active); in [9], 2.46 µM (inactive); in [5], 0.644 µM (active). Further, the GI50 was 0.701 µM (active) in experiment [6] and 0.344 µM (active) in experiment [7].
As for `O=C(c1ccccc1)C1(Br)S(=O)(=O)OCCOS1(=O)=O`, the GI50 in experiment [2], in [3], in experiment [4], in experiment [9], in experiment [5] and in experiment [6] was > 100 µM (inactive) in each case. The GI50 in experiment [7] was > 100 µM (inactive).
Regarding `NC1=NN(c2ccccc2)C(=O)C1/C(=N\NC(=O)c1cc2ccccc2cc1O)C(=O)Nc1ccc(Cl)cc1` (stereo not drawn), the GI50 in experiment [1] is 25.4 µM (inactive); in experiment [8], 49.1 µM (inactive); in experiment [2] it was 22.2 µM (inactive); in experiment [3] it was 20.2 µM (inactive); in experiment [4], 21.6 µM (inactive); in experiment [9], 34.8 µM (inactive). Besides, the figures for the GI50 in experiment [5], in [6] and in [7] were 32.7 µM (inactive), 17.9 µM (inactive) and 34.6 µM (inactive), respectively.
In the case of `CN(C)c1n/c(=N/Cc2ccco2)ss1`, the GI50 in [1] was > 100 µM (inactive); in experiment [2], 38.9 µM (inactive); in [3] it was 4.53 µM (inactive); in experiment [4], 14.2 µM (inactive); in experiment [9] it was > 58.9 µM (inactive); in experiment [5], > 100 µM (inactive). Moreover, the GI50 in [6] was 3.33 µM (inactive); in [7], > 100 µM (inactive).
With `O=C(NC1C2CC3CC(C2)CC1C3)/C(Cl)=C1/Sc2ccccc2NC1=O` (stereo not drawn), the GI50 in [1] is > 100 µM (inactive); in [2], 42.5 µM (inactive); in [3], > 49 µM (inactive); in [4] it was > 100 µM (inactive); in [9] it was > 100 µM (inactive); in experiment [5] it was > 100 µM (inactive). Moreover, the GI50 in [6] is > 65.5 µM (inactive); in experiment [7], > 100 µM (inactive).
For `COc1ccc(N2C(=O)C3CC(c4ccc(Br)cc4)c4c([nH]c5ccccc45)C3C2=O)cc1` (stereo not drawn), the GI50 in experiment [1] is 7.82 µM (inactive); in [2], 4.07 µM (inactive); in experiment [3], 6.41 µM (inactive); in experiment [4], 10.1 µM (inactive); in [9], 14.8 µM (inactive); in [5], 9.46 µM (inactive). Also, the results for the GI50 in experiment [6] and in [7] were 6.93 µM (inactive) and 13 µM (inactive), respectively.
In the case of `COc1cc(/C=C/c2ccc(OC)c(O)c2)cc(OC)c1`, the GI50 in experiment [2] is 6.03 µM (inactive); in experiment [3], 15.2 µM (inactive); in experiment [4] it was 5.52 µM (inactive); in experiment [9], 5.64 µM (inactive); in experiment [5], 20.4 µM (inactive); in experiment [6], 3.33 µM (inactive). Moreover, the GI50 in [7] is 3.37 µM (inactive).
